Like-named read-outs stand apart in the source and are kept apart here.
Columns and labels:
Format in all cases: cell-based
[1] = system: A375 wild type malignant melanoma cell line; test: Proliferation inhibition measured by CTG (CellTiter Glo), A375; settings: Homo sapiens, A-375
Description: (§1) NCI-H358 is a human non-small cell lung cancer cell line with KRAS G12C mutation; PANC-1 and AsPC-1 are pancreatic cancer cell lines with KRAS G12D mutation; AGS is a gastric cancer cell line with KRAS G12D mutation; A427 is a lung cancer cell line with KRAS G12D mutation; THP-1 is a leukemia cell line with NRAS G12D mutation; Hs 578T is a breast cancer cell line with HRAS G12D mutation; SW480 is a colon cancer cell lines with KRAS G12V mutation; A375 is a wild type malignant melanoma cell line. The proliferation inhibitory effect of the compounds on various mutations was evaluated by determining the proliferation inhibitory activity of the compounds on these cell lines.
(§2) The assay was conducted on either 384-well plates or 96-well plates. The procedures are as follows:
(§3) The cell suspensions were added to 384- or 96-well plates (384-well plate: 40 μL; 96-well plate: […]) except for peripheral wells. The plates were incubated in a carbon dioxide incubator overnight. Prepared compounds (10 concentration gradients by serial 3-fold dilution) were added to the wells. The cell plates were incubated in a carbon dioxide incubator for 120 hours. CellTiter Glo reagent (384 well plate: 25 μL; 96 well plate: 100 μL) was added to the 384- or 96-well plates. The plates were shaken for 10 minutes away from light, and incubated for 10 minutes. The plates were read by EnVision system. Inhibition curves were plotted using XLFit and IC50 values were calculated. “IC50>10 μM” is denoted by “*”, “10 μM≥IC50>1 μM” is denoted by “**”, “1 μM≥IC50>100 nM” is denoted by “***”, and “IC50≤100 nM” is denoted by “****”.

[2] = system: AsPC-1 pancreatic cancer cell line (KRAS G12D mutation); test: Proliferation inhibition measured by CTG (CellTiter Glo), AsPC-1; settings: Homo sapiens, ASPC1
Description: as §1, §2, §3

[3] = system: A427 lung cancer cell line (KRAS G12D mutation); test: Proliferation inhibition measured by CTG (CellTiter Glo), A427; settings: Homo sapiens, A-427
Description: as §1, §2, §3

[4] = system: NCI-H358 cells (KRAS G12C mutation); test: Proliferation inhibition measured by CTG (CellTiter Glo), NCI-H358; settings: Homo sapiens
Description: as §1, §2, §3

[5] = system: THP-1 leukemia cell line (NRAS G12D mutation); test: Proliferation inhibition measured by CTG (CellTiter Glo), THP-1; settings: Homo sapiens
Description: as §1, §2, §3

[6] = system: AGS gastric cancer cell line (KRAS G12D mutation); test: Proliferation inhibition measured by CTG (CellTiter Glo), AGS
Description: as §1, §2, §3

[7] = system: SW480 colon cancer cell line (KRAS G12V mutation); test: Proliferation inhibition measured by CTG (CellTiter Glo), SW480; settings: Homo sapiens, Table 2, 120 hours incubation, read-out: IC50 SW480 (G12V)
Description: as §1, §2, §3

NCI-H647 cells (G13D) = test: Proliferation inhibition measured by CTG (CellTiter Glo), NCI-H647; settings: Homo sapiens, Table 2, 120 hours incubation
A549 cells (G12S) = test: Proliferation inhibition measured by CTG (CellTiter Glo), A549; settings: Homo sapiens, Table 2, 120 hours incubation
RPMI 8226 cells (G12A) = test: Proliferation inhibition measured by CTG (CellTiter Glo), RPMI 8226; settings: Homo sapiens, Table 2, 120 hours incubation
[8] = system: Hs 578T breast cancer cell line (HRAS G12D mutation); test: Proliferation inhibition measured by CTG (CellTiter Glo), Hs 578T; settings: Homo sapiens
Description: as §1, §2, §3

[9] = system: PANC-1 pancreatic cancer cell line (KRAS G12D mutation); test: Proliferation inhibition measured by CTG (CellTiter Glo), PANC-1; settings: Homo sapiens, Table 2, 120 hours incubation
Description: as §1, §2
The cell suspensions were added to 384- or 96-well plates (384-well plate: 40 μL; 96-well plate: […]) except for peripheral wells. The plates were incubated in a carbon dioxide incubator overnight. Prepared compounds (10 concentration gradients by serial 3-fold dilution) were added to the wells. The cell plates were incubated in a carbon dioxide incubator for 120 hours. CellTiter Glo reagent (384 well plate: 25 μL; 96 well plate: 100 μL) was added to the 384- or 96-well plates. […] The plates were read by EnVision system. Inhibition curves were plotted using XLFit and IC50 values were calculated. […]

[10] = Table 1, CTG, 120 hours incubation, class symbol, read-out: IC50 (A375)
[11] = Table 1, CTG, 120 hours incubation, class symbol
[12] = Table 1, CTG, 120 hours incubation, class symbol, read-out: IC50 (H358)
[13] = Table 1, number in parentheses, unit not given in Table 1 (legend and Table 2 use μM)
[14] = Table 1, CTG, 120 hours incubation, class symbol, read-out: IC50 (AGS)

SMILES	IC50 [1, 10]	IC50 [2, 11]	IC50 [3, 11]	IC50 [4, 12]	IC50 [5, 11]	IC50 [6, 14]	IC50 [8, 11]	also measured
CN1CCC[C@H]1COc1nc2c(c(N3CCn4c(cnc4CO)C3)n1)CCN(c1cccc3cccc(Cl)c13)C2 [Compound 6]	0.1 to 1 µM	0.1 to 1 µM	0.1 to 1 µM	0.1 to 1 µM	–	–	–	–
CN1CCC[C@@H]1COc1nc2c(c(N3CCn4cncc4C3)n1)CO[C@H](c1cccc3cccc(Cl)c13)C2 [Compound 4]	0.1 to 1 µM	1 to 10 µM	0.1 to 1 µM	1 to 10 µM	–	–	–	–
CN1CCC[C@H]1COc1nc2c(c(N3CCn4cncc4C3)n1)CCN(c1cccc3cccc(Cl)c13)C2 [Compound 2]	0.1 to 1 µM	0.1 to 1 µM	≤ 0.1 µM	≤ 0.1 µM	≤ 0.1 µM	≤ 0.1 µM	0.1 to 1 µM	IC50 [5, 13]: 0.067 µM; IC50 ([6]; Table 1, number in parentheses, unit not given in Table 1 (Table 2 gives the same value in μM), read-out: IC50 (AGS)): 0.092 µM; IC50 ([6]; Table 2, CTG, 120 hours incubation, read-out: IC50 AGS (G12D)): 0.092 µM; IC50 [7]: 98 nM; IC50 ([1]; Table 1, number in parentheses, unit not given in Table 1 (Table 2 gives the same value in μM), read-out: IC50 (A375)): 0.167 µM; IC50 ([1]; Table 2, CTG, 120 hours incubation, read-out: IC50 A375 (wide type)): 0.167 µM; IC50 (NCI-H647 cells (G13D)): 115 nM; IC50 (A549 cells (G12S)): 253 nM; IC50 [2, 13]: 0.139 µM; IC50 (RPMI 8226 cells (G12A)): 128 nM; IC50 [8, 13]: 0.237 µM; IC50 [9]: 193 nM; IC50 [3, 13]: 0.07 µM; IC50 ([4]; Table 1, number in parentheses, no unit printed in Table 1 (Table 2 gives the same values of compound 2 in μM), read-out: IC50 (H358)): 0.063 µM; IC50 ([4]; Table 2, CTG, 120 hours incubation, read-out: IC50 H358 (G12C)): 0.063 µM
CC1CN(c2nc(OC[C@@H]3CCCN3C)nc3c2CCN(c2cccc4cccc(Cl)c24)C3)Cc2cncn21 (stereo partly drawn) [Compound 11]	0.1 to 1 µM	0.1 to 1 µM	0.1 to 1 µM	0.1 to 1 µM	–	–	–	–
CC(CN(C)C)Oc1nc2c(c(N3CCn4cncc4C3)n1)CCN(c1cccc3cccc(Cl)c13)C2 (stereo not drawn) [Compound 29]	0.1 to 1 µM	≤ 0.1 µM	–	≤ 0.1 µM	0.1 to 1 µM	≤ 0.1 µM	0.1 to 1 µM	–
CN1CCC[C@H]1COc1nc2c(c(N3CCn4nncc4C3)n1)CCN(c1cccc3cccc(Cl)c13)C2 [Compound 10]	0.1 to 1 µM	0.1 to 1 µM	0.1 to 1 µM	0.1 to 1 µM	–	–	–	–
CN1CCC[C@H]1COc1nc(N2CCn3cncc3C2)c2ccc(-c3cccc4cccc(Cl)c34)cc2n1 [Compound 1]	0.1 to 1 µM	0.1 to 1 µM	0.1 to 1 µM	0.1 to 1 µM	–	–	–	–
CN1CCC(Oc2nc3c(c(N4CCn5cncc5C4)n2)CCN(c2cccc4cccc(Cl)c24)C3)CC1 [Compound 20]	1 to 10 µM	1 to 10 µM	–	0.1 to 1 µM	0.1 to 1 µM	0.1 to 1 µM	1 to 10 µM	–
CN1CCC[C@H]1COc1nc2c(c(N3CCn4c(cnc4N)C3)n1)CCN(c1cccc3cccc(Cl)c13)C2 [Compound 7]	0.1 to 1 µM	1 to 10 µM	0.1 to 1 µM	0.1 to 1 µM	–	–	–	–
CN1CCC[C@H]1COc1nc2c(c(N3CCn4c(cnc4C#N)C3)n1)CCN(c1cccc3cccc(Cl)c13)C2 [Compound 8]	0.1 to 1 µM	1 to 10 µM	0.1 to 1 µM	1 to 10 µM	–	–	–	–
CN1CCO[C@@H](COc2nc3c(c(N4CCn5cncc5C4)n2)CCN(c2cccc4cccc(Cl)c24)C3)C1 [Compound 32]	1 to 10 µM	1 to 10 µM	–	0.1 to 1 µM	1 to 10 µM	1 to 10 µM	1 to 10 µM	–
CN1CCC[C@H]1COc1nc2c(c(N3CCc4oncc4C3)n1)CCN(c1cccc3cccc(Cl)c13)C2 [Compound 34]	1 to 10 µM	0.1 to 1 µM	–	0.1 to 1 µM	0.1 to 1 µM	0.1 to 1 µM	1 to 10 µM	–
CN(C)CCOc1nc2c(c(N3CCn4cncc4C3)n1)CCN(c1cccc3cccc(Cl)c13)C2 [Compound 16]	0.1 to 1 µM	≤ 0.1 µM	≤ 0.1 µM	0.1 to 1 µM	–	–	–	–
CN1CCC[C@H]1COc1nc2c(c(N3CCn4cnc(C#N)c4C3)n1)CCN(c1cccc3cccc(Cl)c13)C2 [Compound 9]	0.1 to 1 µM	≤ 0.1 µM	≤ 0.1 µM	≤ 0.1 µM	–	≤ 0.1 µM	–	–
Cc1cccc2cccc(N3CCc4c(nc(OC[C@@H]5CCCN5C)nc4N4CCn5cncc5C4)C3)c12 [Compound 17]	0.1 to 1 µM	0.1 to 1 µM	0.1 to 1 µM	0.1 to 1 µM	–	–	–	–
CN1CCO[C@H](COc2nc3c(c(N4CCn5cncc5C4)n2)CCN(c2cccc4cccc(Cl)c24)C3)C1 [Compound 27]	1 to 10 µM	0.1 to 1 µM	–	0.1 to 1 µM	0.1 to 1 µM	0.1 to 1 µM	1 to 10 µM	–
CN(C)CCCOc1nc2c(c(N3CCn4cncc4C3)n1)CCN(c1cccc3cccc(Cl)c13)C2 [Compound 21]	0.1 to 1 µM	0.1 to 1 µM	–	≤ 0.1 µM	0.1 to 1 µM	≤ 0.1 µM	0.1 to 1 µM	–
CN1CCC[C@H]1COc1nc2c(c(N3CCn4cnc(Br)c4C3)n1)CCN(c1cccc3cccc(Cl)c13)C2 [Compound 33]	0.1 to 1 µM	0.1 to 1 µM	–	≤ 0.1 µM	≤ 0.1 µM	≤ 0.1 µM	0.1 to 1 µM	–
